Reference: article PMC5623046, “A Simple PB/LIE Free Energy Function Accurately Predicts the Peptide Binding Specificity of the Tiam1 PDZ Domain” (Frontiers in Molecular Biosciences, 2017)
Where “and” joins values, the source holds several entries; their conditions need not be identical. Equal values may be shown once. Read-outs that look alike come from different tables or passages of the source. Marks after values point to notes of the source that are not given here.

Legend:
[1] = target: T1, wildtype Tiam1 PDZ domain (WT) (Homo sapiens, UniProt Q13009); conditions: relative to WT:Sdc1; ref Shepherd et al., [2011]; Liu et al., [2013]; cited from earlier work
T1 construct: The Tiam1 PDZ domain was purified by nickel-chelate (GE-Healthcare) and size-exclusion chromatography; His6 (N, cleaved yes); made in house; host or cells: Escherichia coli BL21(DE3)
T1 sequence (Q13009 841-930 limits assumed): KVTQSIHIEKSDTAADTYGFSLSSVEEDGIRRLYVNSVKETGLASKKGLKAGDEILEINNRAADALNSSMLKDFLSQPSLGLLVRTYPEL
From the text: Table 1 Tiam1-PDZ:peptide complexes and free energies used for model fitting. | column: Exp.^a || Table 2 Tiam1-PDZ:peptide complexes and free energies not used for model fitting. | column: Exp.^a || Table 4 Alchemical free energy simulation (FEP) results. | column: Exp. || (+ 3 further places)

[2] = target: T1, wildtype Tiam1 PDZ domain (WT); assay: Fluorescence anisotropy binding of dansylated peptides; conditions: for Exp. relative binding free energy ΔΔG: relative to WT:Sdc1, this work, dansylated peptide 5–10 μM, 20 mM sodium phosphate, 50 mM NaCl, pH 6.8, 25°C, triplicate
Experimental: Typically, E. coli cells were grown at 37°C in Luria-Bertani (LB) medium supplemented with ampicillin (100 μg/mL) under vigorous agitation until an A600 of 0.6–0.8 was reached. Cultures were subsequently cooled to 18°C and protein expression was induced by the addition of isopropyl 1-thio-β-d-galactopyranoside (IPTG) to 1 mM final concentration. Induced cells were incubated for an additional 16–18 h at 18°C and harvested by centrifugation. The Tiam1 PDZ domain was purified by nickel-chelate (GE-Healthcare) and size-exclusion chromatography (Shepherd et al., [2010]). […] Undigested protein, cleaved His6 tag and His-tagged rTEV were separated from Tiam1 PDZ domain by nickel-chelate chromatography. The final yield was 20 mg of PDZ protein (>98% pure as judged by SDS-PAGE) from 1 L of culture. Samples were used immediately or lyophilized and stored at […].
All peptides were chemically synthesized by GenScript Inc. (Piscataway, NJ) and judged to be >95% pure based on analytical HPLC and mass spectrometry. Peptides were dansylated at their N-terminus. Peptide concentrations were determined by absorbance measurements (A280) using their predicted extinction coefficient. The peptides used in this study were Syndecan1 (Sdc1) point mutants and double mutants: Sdc1 (residues 303–310 of the full Syndecan protein: TKQEEFYACOOH), Sdc1-A0M (residues 303–310: TKQEEFYMCOOH), Sdc1-F2R (residues 303–310: TKQEERYACOOH), Sdc1-F2R/A0M (residues 303–310: TKQEERYMCOOH), Sdc1-F2A (residues 303–310: TKQEEAYACOOH), Sdc1-F2N (residues 303-310: TKQEENYACOOH), Sdc1-F2I (residues 303–310: TKQEEIYACOOH), Sdc1-E4L (residues 303–310: TKQLEFYACOOH), Sdc1-E3D/Y1T (residues 303–310: TKQEDFTACOOH), and Sdc1-E3T/Y1K (residues 303–310: TKQETFKACOOH). Notice that here and below, for the Sdc1 and other peptides, we number residue positions counting backwards from the peptide C-terminus (position 0). Thus, Sdc1-F2R is mutated at the third position from the C-terminus, which is usually called “position −2” (Shepherd and Fuentes, [2011]). We drop the negative sign to keep the notation simple.
Fluorescence anisotropy was used to monitor the binding of Tiam1 PDZ domain proteins to dansylated peptides. Anisotropy measurements were carried out on a Fluorolog3 (Jobin Yvon, Horiba, NJ) spectrofluorimeter (γex = 340 and γem = 550 nm). All data collection, fitting, and thermodynamic analyses were performed as previously described (Shepherd et al., [2011]). Binding experiments were conducted in 1.3 mL of binding buffer (20 mM sodium phosphate, 50 mM NaCl and pH 6.8) containing peptide at a concentration of 5–10 μM. Measurements were made in a 2 mL quartz cuvette that was stirred and maintained at constant 25°C temperature. The slit widths for the control of excitation and emission intensity were adjusted to the signal-to-noise ratio and maximum intensity and set in the range of 6–9 nm. A ratio of 1:100 and 1:10 dilutions of the stock PDZ protein solution (~1 mM) were prepared in binding buffer. For each experiment, 20–30 individual titration steps were performed until the sample had little or no change in anisotropy. The change in fluorescence anisotropy was plotted against protein concentration and fit to a standard hyperbolic ligand-binding curve. Each titration was carried out in triplicate.

[3] = target: Syndecan-1 (Sdc1) peptide (Homo sapiens) (UniProt P18827); conditions: cited from earlier work
Sequence of Syndecan-1 (Sdc1) peptide (Homo sapiens) (P18827 23-310): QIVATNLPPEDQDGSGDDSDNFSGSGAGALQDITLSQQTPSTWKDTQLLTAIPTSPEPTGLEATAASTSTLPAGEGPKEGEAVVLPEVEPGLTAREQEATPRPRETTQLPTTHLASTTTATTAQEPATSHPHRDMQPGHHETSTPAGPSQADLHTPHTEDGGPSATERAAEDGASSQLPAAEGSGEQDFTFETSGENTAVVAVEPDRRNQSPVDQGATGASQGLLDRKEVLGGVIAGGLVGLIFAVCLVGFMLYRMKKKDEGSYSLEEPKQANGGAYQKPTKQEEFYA

[4] = tested on: Tiam1 PDZ domain quadruple mutant (QM); conditions: relative to WT:Sdc1; ref Shepherd et al., [2011]; Liu et al., [2013]; cited from earlier work
From the text: (§1) Table 1 Tiam1-PDZ:peptide complexes and free energies used for model fitting. | column: Exp.^a || Table 2 Tiam1-PDZ:peptide complexes and free energies not used for model fitting. | column: Exp.^a

[5] = tested on: Tiam1 PDZ domain L915F,L920V; conditions: relative to WT:Sdc1; ref Shepherd et al., [2011]; Liu et al., [2013]; cited from earlier work
From the text: as §1

[6] = tested on: Tiam1 PDZ domain L911M,K912E; conditions: relative to WT:Sdc1; ref Shepherd et al., [2011]; Liu et al., [2013]; cited from earlier work
From the text: as §1

Tiam1 PDZ domain L920V = conditions: ref Shepherd et al., [2011], Liu et al., [2013], cited from earlier work; for Exp. relative binding free energy ΔΔG: relative to WT:Sdc1
From the text: Table 1 Tiam1-PDZ:peptide complexes and free energies used for model fitting. | column: Exp.^a || Tables 1, 2 list the 44 peptide and protein variants for which experimental binding data are available along with the corresponding binding free energy differences (ΔΔG) relative to the wildtype:Sdc1 complex (WT:Sdc1), taken as a reference. Notice that positions within each peptide ligand are numbered backwards from the C-terminus (“position 0”). For two complexes, experimental measurements were not available and ΔΔG was obtained in this work using rigorous alchemical free energy simulations (see below). Seventeen of the complexes involve Tiam1 mutations at one or more of four positions. These ...

Tiam1 PDZ domain L915F = conditions: relative to WT:Sdc1; ref Shepherd et al., [2011]; Liu et al., [2013]; cited from earlier work
From the text: (§2) Table 1 Tiam1-PDZ:peptide complexes and free energies used for model fitting. | column: Exp.^a

Tiam1 PDZ domain K912E = conditions: relative to WT:Sdc1; ref Shepherd et al., [2011]; Liu et al., [2013]; cited from earlier work
From the text: as §2

Tiam1 PDZ domain L911M = conditions: relative to WT:Sdc1; ref Shepherd et al., [2011]; Liu et al., [2013]; cited from earlier work
From the text: as §2

Sequence of Tiam1 PDZ (Q13009 842-911): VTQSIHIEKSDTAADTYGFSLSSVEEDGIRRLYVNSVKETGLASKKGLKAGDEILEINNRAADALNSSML

Q: For YAAKRTYV, which “Exp. relative binding free energy ΔΔG” value [1] is on record?
A: ≥ 1.32^g kcal/mol

Q: For “TKQEEAYACOOH [Sdc1-F2A, Sdc1 point mutant, Ala at position 2]”, which “Exp. relative binding free energy ΔΔG” value [2] is on record?
A: ≥ 1.32 kcal/mol

Q: Which Kd [3] does the source give for Tiam1 PDZ (from UniProt Q13009) here?
A: 26.9 µM

Q: With “TKQEDFTACOOH [Sdc1.E3D, Y1T, Sdc1 double mutant]” as the substance, how does the “Exp. relative binding free energy ΔΔG” value [2] read?
A: 0.87^e kcal/mol

Q: Which “Exp. relative binding free energy ΔΔG” value [2] does the source give for “TKQLEFYACOOH [Sdc1.E4L, Sdc1 point mutant, Leu at position 4]” here?
A: 0.56^e kcal/mol

Q: For “TKQEENYACOOH [Sdc1-F2N, Sdc1 point mutant, Asn at position 2]”, which “Exp. relative binding free energy ΔΔG” value [2] is on record?
A: ≥ 1.32 kcal/mol

Q: With YAAYRYRA as the substance, how does the “Exp. relative binding free energy ΔΔG” value [1] read?
A: ≥ 1.32^g kcal/mol

Q: With “TKQEEIYACOOH [Sdc1.F2I, Sdc1 point mutant, Ile at position 2]” as the substance, how does the “Exp. relative binding free energy ΔΔG” value [2] read?
A: 0.80^e kcal/mol and 0.80 kcal/mol

Q: With SSRKEYYA [Consensus] as the substance, how does the “Exp. relative binding free energy ΔΔG” value [1] read?
A: 0.84 kcal/mol

Q: With “ENQKEYFF [Caspr4, peptide corresponding to the C-terminus of Caspr4]” as the substance, how does the “Exp. relative binding free energy ΔΔG” value [4] read?
A: -0.23 kcal/mol

Q: What about the “Exp. relative binding free energy ΔΔG” value [5] of the same substance?
A: 0.62 kcal/mol

Q: And the “Exp. relative binding free energy ΔΔG” value [6]?
A: 0.04 kcal/mol

Q: And the “Exp. relative binding free energy ΔΔG” value [1]?
A: -0.21 kcal/mol

Q: What about the “Exp. relative binding free energy ΔΔG” value (Tiam1 PDZ domain L920V) of the same substance?
A: -0.54 kcal/mol

Q: What about the Kd (Tiam1 PDZ domain L920V; strongest binding in the dataset) of the same substance?
A: 10.8 µM

Q: What about the “Exp. relative binding free energy ΔΔG” value (Tiam1 PDZ domain L915F) of the same substance?
A: 0.48 kcal/mol

Q: What about the “Exp. relative binding free energy ΔΔG” value (Tiam1 PDZ domain K912E) of the same substance?
A: 0.46 kcal/mol

Q: And the “Exp. relative binding free energy ΔΔG” value (Tiam1 PDZ domain L911M)?
A: -0.39 kcal/mol

Q: For “YAAEKYWA [peptide from a combinatorial library]”, which “Exp. relative binding free energy ΔΔG” value [1] is on record?
A: 0.72 kcal/mol

Q: With “TKQETFKACOOH [Sdc1.E3T, Y1K, Sdc1 double mutant]” as the substance, how does the “Exp. relative binding free energy ΔΔG” value [2] read?
A: 1.33^e kcal/mol

Q: What about the “Exp. relative binding free energy ΔΔG” value ([2]; listed as Sdc1-E3T,Y1K) of the same substance?
A: 1.33 kcal/mol

Q: For “YAAKAFRF [peptide from a combinatorial library]”, which “Exp. relative binding free energy ΔΔG” value [1] is on record?
A: 1.17 kcal/mol

Q: Which “Exp. relative binding free energy ΔΔG” value [4] does the source give for “NKDKEYYV [Neur, peptide corresponding to the C-terminus of Neurexin]” here?
A: 0.32 kcal/mol

Q: What about the “Exp. relative binding free energy ΔΔG” value [5] of the same substance?
A: 1.08 kcal/mol

Q: And the “Exp. relative binding free energy ΔΔG” value [6]?
A: 1.25 kcal/mol

Q: For YAARKFAK, which “Exp. relative binding free energy ΔΔG” value [1] is on record?
A: ≥ 1.32^g kcal/mol

Q: For YAAGRKHF, which “Exp. relative binding free energy ΔΔG” value [1] is on record?
A: ≥ 1.32^g kcal/mol

Q: What does the source list for “TKQEERYACOOH [Sdc1-F2R, Sdc1 point mutant, Arg at position 2]”?
A: Exp. relative binding free energy ΔΔG [2]: ≥ 1.32 kcal/mol; affinity for WT (in words) ([2]; this work): does not have a detectable affinity

Q: With “TKQEEFYMCOOH [Sdc1.A0M, Sdc1 point mutant, Met at position 0]” as the substance, how does the “Exp. relative binding free energy ΔΔG” value [2] read?
A: 1.56^d kcal/mol and 1.56 kcal/mol

Q: With “TKQEEFYACOOH [Sdc1, C-terminal peptide of Syndecan1, residues 303–310]” as the substance, how does the “Exp. relative binding free energy ΔΔG” value [4] read?
A: 0.89 kcal/mol

Q: And the “Exp. relative binding free energy ΔΔG” value [5]?
A: 1.32 kcal/mol

Q: What about the “Exp. relative binding free energy ΔΔG” value [6] of the same substance?
A: 1.21 kcal/mol

Q: What about the “Exp. relative binding free energy ΔΔG” value [1] of the same substance?
A: 0.00 kcal/mol

Q: And the “Exp. relative binding free energy ΔΔG” value (Tiam1 PDZ domain L920V)?
A: 0.31 kcal/mol

Q: And the “Exp. relative binding free energy ΔΔG” value (Tiam1 PDZ domain L915F)?
A: 0.65 kcal/mol

Q: And the “Exp. relative binding free energy ΔΔG” value (Tiam1 PDZ domain K912E)?
A: 0.97 kcal/mol

Q: What about the “Exp. relative binding free energy ΔΔG” value (Tiam1 PDZ domain L911M) of the same substance?
A: 0.15 kcal/mol

Q: With YAAQKHFH as the substance, how does the “Exp. relative binding free energy ΔΔG” value [1] read?
A: ≥ 1.32^g kcal/mol

Q: With YAALIHKF as the substance, how does the “Exp. relative binding free energy ΔΔG” value [1] read?
A: ≥ 1.32^g kcal/mol
